The structures appear in SMILES notation. Where only a bound is given, the exact number is not on record here.

The target in series [1] is Sodium-dependent noradrenaline transporter (Homo sapiens, UniProt P23975). The series can be described thus: Inhibition of noradrenaline re-uptake at human noradrenaline transporter expressed in HEK293 cells. The series is classed as cell-based.
Series [2] is described as follows: Distribution coefficient of the compound, log D. The series is classed as physicochemical. Conditions: octanol/water.
Series [3] in a line: Dissociation constant, pKa of the compound. The series is classed as physicochemical.
The nature of series [4]: Blood clearance in rat in CNS penetration assay at 3 mg/kg, iv or 5 mg/kg, po. The series is classed as ADME, organism-based. Conditions: whole blood.
A short description of series [5]: Tmax in rat at 3 mg/kg, iv or 5 mg/kg, po. The series is classed as ADME, organism-based. The following applies: in vivo.
A short description of series [6]: Half life in human liver microsome. The following applies: liver microsomes. The series is classed as ADME.
A short description of series [7]: Half life in rat liver microsome. The series is classed as ADME. Conditions: liver microsomes.
Series [8] can be described thus: Half life in rat at 3 mg/kg, iv or 5 mg/kg, po. The series is classed as ADME, organism-based. The following applies: in vivo.
Series [9] can be described thus: Oral bioavailability in rat at 5 mg/kg, po. The series is classed as ADME, organism-based. The following applies: in vivo.
Series [10] concerns Rattus norvegicus. The series can be described thus: Unbound volume of distribution in rat at 3 mg/kg, iv or 5 mg/kg, po. Conditions: in vivo. The series is classed as ADME, organism-based.
Series [11] can be described thus: Volume of distribution in rat at 3 mg/kg, iv or 5 mg/kg, po. The series is classed as ADME, organism-based. The following applies: in vivo, read-out: Vdss.
Series [12] relates to Rattus norvegicus. The series can be described thus: Unbound volume of distribution in rat at 1 mg/kg, iv or 1 mg/kg, po. The series is classed as ADME, organism-based. Conditions: in vivo.
Series [13] is described as follows: Tmax in rat at 1 mg/kg, iv or 1 mg/kg, po. The series is classed as ADME, organism-based. Conditions: in vivo.
Series [14] in a line: Volume of distribution in rat at 1 mg/kg, iv or 1 mg/kg, po. The series is classed as ADME, organism-based. The following applies: in vivo, read-out: Vdss.
Series [15] can be described thus: Oral bioavailability in rat at 1 mg/kg, po. Conditions: in vivo. The series is classed as ADME, organism-based.
Series [16] can be described thus: Half life in rat at 1 mg/kg, iv or 1 mg/kg, po. The series is classed as ADME, organism-based. Conditions: in vivo.

Chain of Sodium-dependent noradrenaline transporter (P23975 whole entry): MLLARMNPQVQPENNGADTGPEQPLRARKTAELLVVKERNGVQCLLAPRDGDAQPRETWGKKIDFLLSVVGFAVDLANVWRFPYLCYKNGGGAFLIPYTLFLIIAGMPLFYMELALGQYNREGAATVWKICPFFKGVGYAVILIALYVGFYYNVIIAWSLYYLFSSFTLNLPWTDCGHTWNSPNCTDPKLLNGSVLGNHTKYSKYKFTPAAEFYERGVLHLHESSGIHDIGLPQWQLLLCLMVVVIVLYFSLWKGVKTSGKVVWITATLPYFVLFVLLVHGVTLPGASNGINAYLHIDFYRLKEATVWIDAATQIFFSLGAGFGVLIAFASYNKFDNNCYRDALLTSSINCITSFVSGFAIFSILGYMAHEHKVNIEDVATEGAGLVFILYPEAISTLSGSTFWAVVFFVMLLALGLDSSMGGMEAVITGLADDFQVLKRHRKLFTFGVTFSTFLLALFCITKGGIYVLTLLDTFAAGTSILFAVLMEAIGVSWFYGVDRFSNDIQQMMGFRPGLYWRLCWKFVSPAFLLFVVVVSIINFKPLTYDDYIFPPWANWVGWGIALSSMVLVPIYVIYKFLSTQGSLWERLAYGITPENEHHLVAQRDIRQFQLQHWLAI

Compound `CN[C@H]1CC[C@@H](c2ccc(Cl)c(Cl)c2)c2ccc(C[S+](C)[O-])cc21` (some centres not stated) returned a half-maximal inhibitory concentration (IC50) in series [1] of 450 nM.

`CN[C@H]1CC[C@@H](c2ccc(Cl)c(Cl)c2)c2cccc(C(N)=O)c21` had an IC50 in series [1] of 1150 nM.

Compound `CN[C@H]1CC[C@@H](c2ccc(Cl)c(Cl)c2)c2ccc(S(=O)(=O)N(C)C)cc21` yielded an IC50 in series [1] of 2700 nM.

For `CN[C@H]1CC[C@@H](c2ccc(Cl)c(Cl)c2)c2ccc([S+](C)[O-])cc21` (some centres not stated), in series [1], the IC50 stood at 2000 nM.

As for `CN[C@@H]1CC[C@@H](c2ccc(Cl)c(Cl)c2)c2ccc(S(N)(=O)=O)cc21`, the 50% inhibitory concentration (IC50) in series [1] worked out at 310 nM.

`CN[C@H]1CC[C@@H](c2ccc(Cl)c(Cl)c2)c2cc(C(N)=O)ccc21` gave an IC50 in series [1] of 1100 nM.

The compound `CN[C@H]1CC[C@@H](c2ccc(Cl)c(Cl)c2)c2ccc(CNS(C)(=O)=O)cc21` displayed an IC50 in [1] of 960 nM.

Regarding `CN[C@@H]1CC[C@H](c2ccc(Cl)c(Cl)c2)c2ccc(S(N)(=O)=O)cc21`, the IC50 in series [1] worked out at 310 nM.

In the case of `CN[C@H]1CC[C@@H](c2ccc(Cl)c(Cl)c2)c2cc(C(=O)N(C)C)ccc21`, the IC50 in series [1] came to 11500 nM.

In turn, `CN[C@H]1CC[C@@H](c2ccc(Cl)c(Cl)c2)c2ccc(S(=O)(=O)NC)cc21` gave a log distribution coefficient (logD) in series [2] of 2.8. The midpoint of inhibition in [1], the IC50, lay at 1250 nM.

Take `CN[C@H]1CC[C@@H](c2ccc(Cl)c(Cl)c2)c2cc(C(N)=O)c(NS(C)(=O)=O)cc21`: the half-maximal inhibitory concentration (IC50) in series [1] is 2100 nM.

Compound `CN[C@H]1CC[C@@H](c2ccc(Cl)c(Cl)c2)c2ccc([N+](=O)[O-])cc21` gave an IC50 in series [1] of 2900 nM.

`CN[C@H]1CC[C@@H](c2ccc(Cl)c(Cl)c2)c2ccc(C(N)=O)cc21` showed a logD in series [2] of 2.3. In series [3], this compound had a pKa of 8.5. The compound also came in with a 50% inhibitory concentration (IC50) in series [1] of 410 nM.

Turning to `CN[C@H]1CC[C@@H](c2ccc(Cl)c(Cl)c2)c2ccc(CC(=O)O)cc21`, in series [1], inhibition was half-maximal at 9600 nM (IC50).

For `CN[C@H]1CC[C@H](c2ccc(Cl)c(Cl)c2)c2ccc(S(N)(=O)=O)cc21`, the half-inhibitory concentration (IC50) in series [1] was 11 nM.

Take `CN[C@H]1CC[C@@H](c2ccc(Cl)c(Cl)c2)c2ccc(-n3ccnn3)cc21`: in [1], the midpoint of inhibition, the IC50, lay at 650 nM.

`CN[C@H]1CC[C@@H](c2ccc(Cl)c(Cl)c2)c2ccc(S(C)(=O)=O)cc21`: the 50% inhibitory concentration (IC50) in [1] came to 2100 nM.

Compound `CN[C@H]1CC[C@@H](c2ccc(Cl)c(Cl)c2)c2cc(S(N)(=O)=O)ccc21` showed an IC50 in series [1] of 2100 nM.

Compound `CN[C@H]1CC[C@@H](c2ccc(Cl)c(Cl)c2)c2cc([S+](C)[O-])ccc21` (some centres not stated) yielded a half-maximal inhibitory concentration (IC50) in series [1] of 1800 nM.

In series [1], `CN[C@H]1CC[C@@H](c2ccc(Cl)c(Cl)c2)c2ccc(C#N)cc21` registered a half-maximal inhibitory concentration (IC50) of 3200 nM.

For `CN[C@H]1CC[C@@H](c2ccc(Cl)c(Cl)c2)c2ccc(CO)cc21`, the IC50 in series [1] amounted to 980 nM.

In series [1], `CN[C@H]1CC[C@@H](c2ccc(Cl)c(Cl)c2)c2cc(C(=O)O)c(NS(C)(=O)=O)cc21` had an IC50 of 9100 nM.

`CNC(=O)c1cccc2c1[C@@H](NC)CC[C@H]2c1ccc(Cl)c(Cl)c1` had a 50% inhibitory concentration (IC50) in series [1] of 1500 nM.

`CNC(=O)c1ccc2c(c1)[C@H](c1ccc(Cl)c(Cl)c1)CC[C@@H]2NC` had a 50% inhibitory concentration (IC50) in series [1] of 5000 nM.

In series [1], `CN[C@H]1CC[C@@H](c2ccc(Cl)c(Cl)c2)c2ccc(CC(N)=O)cc21` displayed an IC50 of 920 nM.

Regarding `CN[C@H]1CC[C@@H](c2ccc(Cl)c(Cl)c2)c2ccc(S(N)(=O)=O)cc21`, in series [4], the clearance came out at 60 mL/min/kg. Besides, the time to peak (Tmax) in [5] amounted to 1 h. This compound also registered a logD in series [2] of 2.3. For the same compound, the results for the half-life in series [6], in series [7] and in series [8] were more than 2 h, more than 2 h and 4 h, respectively. In series [9], this compound showed a bioavailability of 44%. The same compound came in with a Vdss with Rattus norvegicus [10] of 600 L/kg. Also, in [3], the pKa is 8.4. Further, in series [1], the half-maximal inhibitory concentration (IC50) was determined as 770 nM. In addition, the Vd in [11] was determined as 19 L/kg.

For the compound `CN[C@H]1CC[C@@H](c2ccc(Cl)c(Cl)c2)c2ccccc21` [SERTRALINE], in [2], the “Log D” value is recorded as 3.1. Further, the half-life is more than 2 h in series [6], 0.383 h in series [7] and 5 h in series [16]. For the same compound, the Vdu in the series on Rattus norvegicus [12] turned out to be 1900 L/kg. Further, the time of peak concentration (Tmax) in series [13] worked out at 4 h. Also, the Vd in series [14] is 52 L/kg. Moreover, the pKa in series [3] came to 9.3. In [15], the bioavailability turned out to be 51%.

Turning to `CN[C@H]1CC[C@@H](c2ccc(Cl)c(Cl)c2)c2ccc(S(=O)(=O)NCCO)cc21`, it took 540 nM to reach half-maximal inhibition in series [1] (IC50).

The compound `CN[C@H]1CC[C@@H](c2ccc(Cl)c(Cl)c2)c2cccc(C(=O)O)c21` came in with an IC50 in [1] of 880 nM.

`CN[C@H]1CC[C@@H](c2ccc(Cl)c(Cl)c2)c2ccc(C(=O)OC)cc21` returned a concentration for half-maximal inhibition (IC50) in [1] of 1250 nM.

`CN[C@H]1CC[C@@H](c2ccc(Cl)c(Cl)c2)c2ccc(-n3cncn3)cc21` had an IC50 in series [1] of 760 nM.

As to `CNC(=O)c1ccc2c(c1)[C@@H](NC)CC[C@H]2c1ccc(Cl)c(Cl)c1`, in series [2], the logD is 2.8. The same compound gave a pKa in series [3] of 8.8.

In series [1], `CN[C@H]1CC[C@@H](c2ccc(Cl)c(Cl)c2)c2cc(S(C)(=O)=O)ccc21` showed an IC50 of 4200 nM.

In the case of `CN[C@H]1CC[C@@H](c2ccc(Cl)c(Cl)c2)c2ccc(NS(C)(=O)=O)cc21`, the half-inhibitory concentration (IC50) in [1] worked out at 60 nM.

Take `CN[C@H]1CC[C@@H](c2ccc(Cl)c(Cl)c2)c2cc(C(=O)O)ccc21`: the half-inhibitory concentration (IC50) in series [1] was found to be 20300 nM.

For the origin of these results see ChEMBL document CHEMBL1139648, “Designing rapid onset selective serotonin re-uptake inhibitors. Part 1: Structure-activity relationships of substituted (1S,4S)-4-(3,4-dichlorophenyl)-N-methyl-1,2,3,4-tetrahydro-1-naphthaleneamine” (Bioorg Med Chem Lett, 2006).
